Data on 21 molecules can be found in patent publication US4968705A, “Benzopyrrolidinone compounds as bronchospastic agents” (Adir et Cie, priority 1988, dated 1990).

Like-named read-outs stand apart in the source and are kept apart here.

One data set in a line: Toxicity LD50 in mouse. In kind it is in vivo. Particulars: in vivo. The source says: (§1) The compounds of the invention and the prior art product fenspiride of the prior art used as reference substance were subjected to various tests described in ARZNEIMITTEL-FORSCHUNG/DRUG RESEARCH 37 (II), 12, 1354-1355 (1987), especially
The test system of data set [1] is histamine-induced bronchoconstriction. As to the kind of experiment: Armitage test: histamine-induced bronchoconstriction test in guinea pigs. In kind it is in vivo. Particulars: guinea pig p.o.
Text: as §1
the histamine-induced bronchoconstriction test in guinea pigs, […]

Data set [2] concerns experimental asthma induced in guinea pigs by antigen aerosols. As to the kind of experiment: Passive shock in guinea pigs (experimental asthma induced by antigen aerosols). In kind it is in vivo. To be noted: Cavia porcellus, read-out: Passive shock guinea pig ED50. The source says:
to the determination of the passive shock resulting from the study of experimental asthma induced in guinea pigs by antigen aerosols and […]

Data set [3] addresses purified phosphodiesterase. As to the kind of experiment: In vitro inhibition of purified phosphodiesterase. In kind it is biochemical.
Text: as §1
to assays in vitro on the inhibition of purified phosphodiesterase.

Another data set deals with mice's ear edema. The data set can be described thus: Mice's ear edema (technique of Young et al.). The data set is classed as in vivo. To be noted: for decrease of the mice's ear edema: per os, 36 micromole/kg. The method, then:
The compounds of the present invention were also tested on the mice's ear edema according to the technique of John M. YOUNG et al., Journal of […], 82, 363-371 (1984). Administrated, per os, at a dose of 36 micromole/kg, the derivatives of the present invention provoke a decrease of the mice's ear edema of from 15 to 50% according to the compounds.

In another data set the test system is mouse. As to the kind of experiment: Toxicity LD50 in mouse. In kind it is in vivo. To be noted: PO.
Text: as §1

[4] abbreviates: Cavia porcellus, po, dose 1 mg/kg, read-out: Armitage test % protection.
[5] abbreviates: Cavia porcellus, po, read-out: Armitage test % protection.
Setting [6] is: +calmoduline, read-out: Phosphodiesterase inhibition IC50 +calmoduline (converted).
Where [7] appears, read: basal, read-out: Phosphodiesterase inhibition IC50 basal (converted).

The term LD50 denotes the dose expected to kill half of the subjects tested. A higher LD50 goes with lower toxicity. Usually ED50 stands for the dose that gives a 50% effect, or the effect in half of the subjects. Turning to `O=C1Cc2ccccc2N1CCN1CCC(OC(c2ccccc2)c2ccccc2)CC1` [Example 1, 1-(4-benzhydryloxypiperidinoethyl)oxindole], the LD50 in the data set “Toxicity LD50 in mouse” (IP) was about 200 mg/kg. For the same molecule, the inhibition in vivo at 1 mg/kg in data set [1] (setting [4]) turned out to be 66%. Further, the ED50 in data set [2] (ip) was found to be 2.5 mg/kg; in data set [2] (po), 5 mg/kg. In data set [3] (basal), the “Phosphodiesterase inhibition IC50 basal” value is reported as “inactif”.
The IC50 is the concentration at which inhibition is half-maximal. In “Toxicity LD50 in mouse” (PO), `O=C1c2ccc(F)cc2CN1CCN1CCC(OC(c2ccccc2)c2ccccc2)CC1` [Example 18, 2-(4-benzhydryloxypiperidinoethyl)-5-fluoro-isoxindole] yielded an LD50 of over 800 mg/kg. Further, the inhibition in vivo at 5 mg/kg in data set [1] (setting [5]) stood at 68%. In data set [2] (guinea pig, PO), the ED50 was 40 mg/kg. The IC50 is 20 µM in data set [3] (setting [6]) and 100 µM in data set [3] (setting [7]).
Take `O=C1c2ccccc2CN1CCN1CCC(OC(c2ccccc2)c2ccccc2)CC1` [Example 2, 2-(4-benzhydryloxypiperidinoethyl)isoxindole]: the LD50 in the data set “Toxicity LD50 in mouse” (PO) was over 800 mg/kg. For the same molecule, in data set [1] (setting [4]), the inhibition in vivo at 1 mg/kg stood at 36%. Moreover, the ED50 in data set [2] (guinea pig, PO) is 2.5 to 5 mg/kg. The IC50 in data set [3] (setting [7]) is over 100 µM.
Turning to `CC(C)C1C(=O)N(CCN2CCC(OC(c3ccccc3)c3ccccc3)CC2)c2ccccc21` (stereo not drawn) [Example 15, 1-(4-benzhydryloxypiperidinoethyl)-3-isopropyloxindole], the LD50 in “Toxicity LD50 in mouse” (PO) is over 800 mg/kg. For the same molecule, the inhibition in vivo at 5 mg/kg in data set [1] (setting [5]) turned out to be 50%. Besides, the ED50 in data set [2] (guinea pig, PO) amounted to 5 mg/kg. Also, the results for the IC50 in data set [3] (setting [6]) and in data set [3] (setting [7]) were 30 µM and 100 µM, respectively.
With `COc1cc2c(cc1OC)C(=O)N(CCCN1CCC(OC(c3ccccc3)c3ccccc3)CC1)C2` [Example 12, 2-(4-benzhydryloxypiperidinopropyl)-5,6-dimethoxyisoxindole], the LD50 in “Toxicity LD50 in mouse” (PO) was 800 mg/kg. In data set [1] (setting [5]), the inhibition in vivo at 5 mg/kg came out at 79%. In addition, the ED50 in data set [2] (guinea pig, PO) came out at 20 mg/kg. Moreover, the IC50 is 20 µM in data set [3] (setting [6]) and 70 µM in data set [3] (setting [7]).
`O=C1NCC2(CCN(CCc3ccccc3)CC2)O1` [Fenspiride, reference compound] yielded an LD50 in “Toxicity LD50 in mouse” (PO) of over 800 mg/kg. Further, in data set [1] (Cavia porcellus, po, dose 2,5 mg/kg, read-out: Armitage test % protection), the inhibition in vivo at 2.5 mg/kg was found to be 69%. For the same molecule, the median effective dose (ED50) in data set [2] (guinea pig, IP) turned out to be 5 mg/kg; in data set [2] (guinea pig, PO) it was 10 mg/kg. Further, the IC50 in data set [3] (setting [6]) and in data set [3] (setting [7]) was over 100 µM in each case. In addition, in the data set on mice's ear edema (same conditions and same dose (per os, 36 micromole/kg)), the “activity on mice's ear edema (in words)” value is on record as “no activity”.
`O=C1Cc2ccccc2N1CCCN1CCC(C(c2ccc(F)cc2)c2ccc(F)cc2)CC1` [Example 4, 1-(4-bis-para-fluorobenzhydrylpiperidinopropyl)-oxindole] gave an LD50 in “Toxicity LD50 in mouse” (IP) of about 200 mg/kg. Besides, the inhibition in vivo at 20 mg/kg in data set [1] (Cavia porcellus, po, dose 20 mg/kg, read-out: Armitage test % protection) was found to be 59.4%. Also, the 50% effective dose (ED50) in data set [2] (guinea pig, IP) was determined as 40 mg/kg.
On to `O=C1Cc2cccc(F)c2N1CCN1CCC(OC(c2ccccc2)c2ccccc2)CC1` [Example 6, 1-(4-benzhydryloxypiperidinoethyl)-7-fluoro-oxindole], for which, in data set [1] (setting [4]), the inhibition in vivo at 1 mg/kg worked out at 36.6%. The “Phosphodiesterase inhibition IC50 basal” value in data set [3] (basal) was “inactif”.
Regarding `O=C1Cc2ccccc2N1CCN1CCC(OC(c2ccc(F)cc2)c2ccc(F)cc2)CC1` [Example 3, 1-(4-bis-para-fluorobenzhydryloxypiperidinoethyl)oxindole], the LD50 in the data set “Toxicity LD50 in mouse” (PO) is under 800 mg/kg. Further, the inhibition in vivo at 1 mg/kg in data set [1] (setting [4]) was 47.6%. The “Phosphodiesterase inhibition IC50 basal” value in data set [3] (basal) is on record as “inactif”.
With `O=C1c2ccc(F)cc2CN1CCCN1CCC(OC(c2ccccc2)c2ccccc2)CC1` [Example 19, 2-(4-benzhydryloxypiperidinopropyl)-5-fluoro-isoxindole], the LD50 in “Toxicity LD50 in mouse” (PO) was over 800 mg/kg. Further, the inhibition in vivo at 5 mg/kg in data set [1] (setting [5]) turned out to be 68%. Also, in data set [2] (guinea pig, PO), the ED50 worked out at 10 mg/kg. Also, the values for the IC50 in data set [3] (setting [6]) and in data set [3] (setting [7]) were 20 µM and over 100 µM, respectively.
For `O=C1c2cc(F)ccc2CN1CCN1CCC(OC(c2ccccc2)c2ccccc2)CC1` [Example 20, 2-(4-benzhydryloxypiperidinoethyl)-6-fluoro-isoxindole], in “Toxicity LD50 in mouse” (PO), the LD50 is over 800 mg/kg. In data set [1] (setting [5]), the inhibition in vivo at 5 mg/kg was determined as 43%. The ED50 in data set [2] (guinea pig, PO) was found to be 40 mg/kg. The IC50 in data set [3] (setting [6]) was 20 µM; in data set [3] (setting [7]), over 100 µM.
`O=c1[nH]c2ccccc2n1CCCN1CCN(C(c2ccccc2)c2ccccc2)CC1` [oxatomide]: in the data set on mice's ear edema, the “decrease of the mice's ear edema” value is on record as “lower than 15%”.
`O=C1Cc2cc(F)ccc2N1CCN1CCC(OC(c2ccccc2)c2ccccc2)CC1` [Example 8, 1-(4-benzhydryloxypiperidinoethyl)-5-fluoro-oxindole]: the inhibition in vivo at 1 mg/kg in data set [1] (setting [4]) came to 72%. Also, the ED50 in data set [2] (po) lay within 2.5 to 5 mg/kg. The IC50 in data set [3] (setting [7]) is over 10 µM.
The molecule `O=C1Cc2ccccc2N1CCN1CCC(C(c2ccc(F)cc2)c2ccc(F)cc2)CC1` [Example 10, 1-(4-bis-para-fluorobenzhydrylpiperidinoethyl)oxindole] returned an LD50 in “Toxicity LD50 in mouse” (PO) of under 800 mg/kg. In addition, in data set [1] (setting [5]), the inhibition in vivo at 5 mg/kg worked out at 78%. The IC50 in data set [3] (setting [6]) is 100 µM; in data set [3] (setting [7]), over 100 µM.
In the case of `O=C1Cc2ccccc2N1CCN1CCC(SC(c2ccccc2)c2ccccc2)CC1` [Example 9, 1-(4-benzhydrylthiopiperidinoethyl)-oxindole], the inhibition in vivo at 5 mg/kg in data set [1] (setting [5]) turned out to be 60%.
`CC1(C)C(=O)N(CCN2CCC(OC(c3ccccc3)c3ccccc3)CC2)c2ccccc21` [Example 14, 1-(4-benzhydryloxypiperidinoethyl)-3,3-dimethyloxindole]: the LD50 in the data set “Toxicity LD50 in mouse” (PO) is over 800 mg/kg. In addition, in data set [1] (setting [5]), the inhibition in vivo at 5 mg/kg stood at 70%. For the same molecule, the ED50 in data set [2] (guinea pig, PO) is over 40 mg/kg. Besides, the IC50 was 20 µM in data set [3] (setting [6]) and 30 µM in data set [3] (setting [7]).
For `O=C1c2ccccc2CN1CCCN1CCC(OC(c2ccccc2)c2ccccc2)CC1` [Example 16, 2-(4-benzhydryloxypiperidinopropyl)-isoxindole] the same measures were over 800 mg/kg, 82%, 5 mg/kg, 30 µM and over 100 µM.
On to `O=C1Cc2cc(F)ccc2N1CCCN1CCC(OC(c2ccccc2)c2ccccc2)CC1` [Example 17, 1-(4-benzhydryloxypiperidinopropyl)-5-fluoro-oxindole], for which the LD50 in “Toxicity LD50 in mouse” (PO) was over 800 mg/kg. In data set [1] (setting [5]), the inhibition in vivo at 5 mg/kg came to 75%. Also, in data set [2] (guinea pig, PO), the ED50 was 40 mg/kg. Besides, the IC50 in data set [3] (setting [6]) was 10 µM; in data set [3] (setting [7]), over 100 µM.
Take `O=C1Cc2ccccc2N1CCN1CCC(OC(c2ccc(F)cc2)c2ccc(F)cc2)CC1` [Example 7, 1-(4-bis-para-fluorobenzhydryloxypiperidinoethyl)oxindole]: in the data set with mouse, the “Toxicity LD50” value is under 800 mg/kg. Besides, in data set [1] (dose 1 mg/kg), the “Armitage test % protection” value is “+50%”. The ED50 in data set [2] (po) fell in the range of 2.5 to 5 mg/kg. Besides, in data set [3] (basal), the “Phosphodiesterase inhibition IC50 basal” value is given as “inactif”.
On to `O=c1[nH]c2ccccc2n1CCN1CCC(OC(c2ccccc2)c2ccccc2)CC1` [1[(2-oxo-3-benzimidazolinyl-ethyl]-4-benzhydryloxy-piperidine], for which the “decrease of the mice's ear edema” value in the data set with mice's ear edema was “lower than 15%”.
On to `O=C1Cc2ccccc2N1CCCN1CCC(OC(c2ccccc2)c2ccccc2)CC1` [Example 5, 1-(4-benzhydryloxypiperidinopropyl)-oxindole], for which the inhibition in vivo at 1 mg/kg in data set [1] (setting [4]) worked out at 72.1%. Moreover, the IC50 is 100 µM in data set [3] (setting [6]) and over 100 µM in data set [3] (setting [7]).
